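Protocol summary: plate cells (96-well), add compound at 5 concentrations, incubate 48 h, interpolate endpoints linearly. Here, GI50 denotes the concentration required for 50% inhibition of growth.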 The source made the active and inactive calls. Cut-off read from the data, not from the text of the source: active = GI50 up to about 1.1 µM and inactive = higher.
Experiments:
Assay in all cases: DTP human tumour cell line panel, 48 h
MDA-MB-435 = test system: MDA-MB-435
MOLT-4 = test system: MOLT-4
HCT-15 = test system: HCT-15
BT-549 = test system: BT-549
OVCAR-4 = test system: OVCAR-4
EKVX = test system: EKVX
OVCAR-8 = test system: OVCAR-8
SF-295 = test system: SF-295
SNB-19 = test system: SNB-19
MDA-MB-231 = test system: MDA-MB-231
MDA-N = test system: MDA-N
T47D = test system: T47D
Malme-3M = test system: Malme-3M
CCRF-CEM = test system: CCRF-CEM
ACHN = test system: ACHN
TK-10 = test system: TK-10
SN12C = test system: SN12C
COLO 205 = test system: COLO 205
786-0 = test system: 786-0
HL-60 = test system: HL-60

| SMILES | GI50 (MDA-MB-435) | GI50 (MOLT-4) | GI50 (HCT-15) [µM] | GI50 (BT-549) | GI50 (OVCAR-4) | GI50 (EKVX) | GI50 (OVCAR-8) | GI50 (SF-295) | GI50 (SNB-19) | GI50 (MDA-MB-231) | GI50 (MDA-N) | GI50 (T47D) | GI50 (Malme-3M) | GI50 (CCRF-CEM) | GI50 (ACHN) | GI50 (TK-10) | GI50 (SN12C) | GI50 (COLO 205) | GI50 (786-0) | GI50 (HL-60) |
| --- | --- | --- | --- | --- | --- | --- | --- | --- | --- | --- | --- | --- | --- | --- | --- | --- | --- | --- | --- | --- |
| COc1ccc(C2NC3=C(CCCC3)C3(C#N)C(=O)N=C(N)C23C#N)cc1 (stereo not given) | > 100 µM (inactive) | > 100 µM (inactive) | > 100 | > 100 µM (inactive) | > 100 µM (inactive) | > 100 µM (inactive) | > 100 µM (inactive) | > 100 µM (inactive) | > 100 µM (inactive) | > 100 µM (inactive) | > 100 µM (inactive) | > 100 µM (inactive) | > 100 µM (inactive) | 23 µM (inactive) | > 100 µM (inactive) | > 100 µM (inactive) | > 100 µM (inactive) | > 100 µM (inactive) | > 100 µM (inactive) | > 100 µM (inactive) |
| CC(C)NCCCNc1c2ccccc2nc2cccc([N+](=O)[O-])c12 | 0.0103 µM (active) | 0.00211 µM (active) | 0.0504 | 0.0421 µM (active) | 0.00438 µM (active) | 0.0177 µM (active) | 0.00566 µM (active) | 0.00746 µM (active) | 0.0499 µM (active) | 0.0132 µM (active) | 0.0138 µM (active) | 0.00851 µM (active) | 0.0133 µM (active) | 0.0142 µM (active) | 0.0136 µM (active) | 0.0373 µM (active) | 0.00957 µM (active) | 0.00161 µM (active) | 0.00445 µM (active) | 0.013 µM (active) |
| CCCCCC1CC=CC(=O)O1 (stereo not given) | 5.43 µM (inactive) | 2.25 µM (inactive) | 5.07 | 12.3 µM (inactive) | 1.18 µM (inactive) | 3.24 µM (inactive) | 5.97 µM (inactive) | 11.5 µM (inactive) | 10.5 µM (inactive) | 10.6 µM (inactive) | 6.15 µM (inactive) | 11.4 µM (inactive) | 0.933 µM (active) | 2.39 µM (inactive) | 7.62 µM (inactive) | 11.6 µM (inactive) | 6.73 µM (inactive) | 4.06 µM (inactive) | 3.85 µM (inactive) | 4.93 µM (inactive) |
| CNC1C(O)C(OC2C(N)CC(N)C(OC3OC(C(C)O)C(O)C(O)C3N)C2O)OCC1(C)O (stereo not given) | > 100 µM (inactive) | > 100 µM (inactive) | > 100 | > 100 µM (inactive) | > 100 µM (inactive) | > 100 µM (inactive) | > 100 µM (inactive) | > 100 µM (inactive) | > 100 µM (inactive) | > 100 µM (inactive) | > 100 µM (inactive) | > 100 µM (inactive) | > 10 µM (inactive) | > 100 µM (inactive) | > 100 µM (inactive) | > 100 µM (inactive) | > 100 µM (inactive) | > 100 µM (inactive) | > 100 µM (inactive) | > 100 µM (inactive) |

Reference: ChEMBL document CHEMBL1201862, “PubChem BioAssay data set” (2004)
